Patent US7790474B1, “p53 modulators” (Schering Corporation, priority 2005, dated 2010)

system: GST-p53 DNA binding domain (aa 92-aa 312); assay: Scintillation Proximity Assay (displacement of 3H-labeled p53 binder); conditions: percentage of 3H-labeled ligand remaining bound, number in brackets = average of n
Method: [drawing 38] (^3H at C bearing the chlorophenyl groups and the piperazinyl group), a radiolabeled small molecule which binds to p53, and the GST-p53 DNA binding domain (aa 92-aa 312), a quantitative screening assay was used to determine if various molecules comprise p53 binding activity. The assay is based on Scintillation Proximity Assay (SPA) technology. The complex of GST-p53,
[drawing 39] and Glutathione-SPA beads (Amersham Biosciences) were incubated with mixing for 1 hour at room temperature in the presence of the compounds to be screened. The signal was read on a Microbeta.
The numerical values expressed refer to the percentage of labeled
[drawing 40] remaining bound to the mutant p53 protein after exposure to the indicated compound.

Structure (SMILES) | SPA ASSAY % Residual T @ 2 ug/mL of drug (Average of)
CN(C)CCCNc1nc(CN(C)Cc2nccs2)nc2ccccc12 [Formula 66] | 37.0 (3) %
CN(C)CCCNc1nc(CN(C)Cc2cccc(F)c2)nc2ccccc12 [Formula 67] | 64.1%
CN(C)CCCNc1nc(CN(C)Cc2ccccc2C#N)nc2ccccc12 [Formula 68] | 52.7%
CN(C)CCCNc1nc(CN(C)Cc2cccc(C#N)c2)nc2ccccc12 [Formula 69] | 50.9%
CN(C)CCCNc1nc(CN(C)Cc2ccc(C#N)cc2)nc2ccccc12 [Formula 70] | 54.1%
CN(C)CCCNc1nc(CN(C)C/C=C/c2ccccc2)nc2ccccc12 [Formula 71] | 68.4%
Cc1cccc(C)c1CN(C)Cc1nc(NCCCN(C)C)c2ccccc2n1 [Formula 72] | 69.7%
COc1ccc(CN(C)Cc2nc(NCCCN(C)C)c3ccccc3n2)cc1 [Formula 73] | 44.4%
CN(C)CCCNc1nc(CN(C)Cc2ccc(Cl)cc2)nc2ccccc12 [Formula 74] | 55.1%
CN(C)CCCNc1nc(CN(C)Cc2c(F)cccc2F)nc2ccccc12 [Formula 75] | 58.9%
CCOC(=O)C1CC1CN(C)Cc1nc(NCCCN(C)C)c2ccccc2n1 (centres unmarked) [Formula 76] | 57.8%
CN(C)CCCNc1nc(CN(C)Cc2cccc3cc[nH]c23)nc2ccccc12 [Formula 77] | 25.7%
CN(C)CCCNc1nc(CN(C)Cc2cc3ccccc3o2)nc2ccccc12 [Formula 78] | 45.9 (3) %
CC(CCN(C)Cc1nc(NCCCN(C)C)c2ccccc2n1)c1ccccc1 (centres unmarked) [Formula 79] | 67.6%
CN(C)CCCNc1nc(CN(C)Cc2ccccc2C(=O)O)nc2ccccc12 [Formula 80] | 65.6%
CN(C)CCCNc1nc(CN(C)Cc2cccc3c2OCO3)nc2ccccc12 [Formula 81] | 46.8%
CN(C)CCCNc1nc(CN(C)Cc2cccc3ccccc23)nc2ccccc12 [Formula 82] | 52.9%
CN(C)CCCNc1nc(CN(C)Cc2ccc3ccccc3c2)nc2ccccc12 [Formula 83] | 45.9 (3) %
CN(C)CCCNc1nc(CN(C)Cc2cccc(C(F)(F)F)c2)nc2ccccc12 [Formula 85] | 48.4 (3) %
CN(C)CCCNc1nc(CN(C)Cc2cccc(Cl)c2Cl)nc2ccccc12 [Formula 86] | 61.1%
CN(C)CCCNc1nc(CN(C)Cc2cc(Cl)ccc2Cl)nc2ccccc12 [Formula 87] | 49.5 (3) %
Cc1c(CN(C)Cc2nc(NCCCN(C)C)c3ccccc3n2)sc2ccccc12 [Formula 88] | 23.6 (3) %
CN(C)CCCNc1nc(CN(C)Cc2ccccc2OCC(=O)O)nc2ccccc12 [Formula 89] | 60.1 (3) %
CN(C)CCCNc1nc(CN(C)Cc2ccc(-c3ccccc3)cc2)nc2ccccc12 [Formula 90] | 68.1%
CN(C)CCCNc1nc(CN(C)Cc2ccc(Oc3ccccc3)cc2)nc2ccccc12 [Formula 91] | 54.0%
CN(C)CCCNc1nc(CN(C)Cc2ccc(C#Cc3ccccc3)cc2)nc2ccccc12 [Formula 92] | 61.1%
CN(C)CCCNc1nc(CN(C)Cc2cccn2S(=O)(=O)c2ccccc2)nc2ccccc12 [Formula 93] | 45.1 (3) %

Structure (SMILES) | SPA ASSAY % Residual T @ 2 ug/mL of drug (Average of)
CN(C)CCCNc1nc(CN(C)Cc2ccccc2Sc2ccc(Cl)cc2)nc2ccccc12 [Formula 94] | 53.7%
CN(C)CCCNc1nc(CN(C)C2CCC2)nc2ccccc12 [Formula 95] | 66.5%
CN(C)CCCNc1nc(CN(C)C2CCCCC2)nc2ccccc12 [Formula 96] | 45.5 (3) %
CN(C)CCCNc1nc(CN(C)C2CCSC2)nc2ccccc12 (centres unmarked) [Formula 97] | 45.0 (3) %
CN(C)CCCNc1nc(CN(C)C2C[C@@H]3CC[C@H]2C3)nc2ccccc12 (some centres unmarked) [Formula 98] | 64.4%
CC1CCC(N(C)Cc2nc(NCCCN(C)C)c3ccccc3n2)CC1 (centres unmarked) [Formula 99] | 56.5%
CC(C)C1CCC(N(C)Cc2nc(NCCCN(C)C)c3ccccc3n2)CC1 (centres unmarked) [Formula 100] | 13.5 (3) %
CC(=O)N1CCC(N(C)Cc2nc(NCCCN(C)C)c3ccccc3n2)CC1 [Formula 101] | 47.7 (3) %
CN(C)CCCNc1nc(CN(C)C2CCC3CCCCC3C2)nc2ccccc12 (centres unmarked) [Formula 102] | 28.7(3) %
CN(C)CCCNc1nc(CN(C)C2CCC(C(C)(C)C)CC2)nc2ccccc12 (centres unmarked) [Formula 103] | 7.8 (2) %
CN(C)CCCNc1nc(CN(C)C2CCC3(CC2)OCCO3)nc2ccccc12 [Formula 104] | 23.0 (2) %
CN(C)CCCNc1nc(CN(C)C2CCCC(C(F)(F)F)C2)nc2ccccc12 (centres unmarked) [Formula 105] | 57.7%
CN(C)CCCNc1nc(CN(C)C2CCC(C(F)(F)F)CC2)nc2ccccc12 (centres unmarked) [Formula 106] | 52.8%
CCC(C)(C)C1CCC(N(C)Cc2nc(NCCCN(C)C)c3ccccc3n2)CC1 (centres unmarked) [Formula 107] | 6.3 (2) %
CN(C)CCCNc1nc(CN(C)C2CCC(c3ccccc3)CC2)nc2ccccc12 (centres unmarked) [Formula 108] | 21.0 (2) %
CN(C)CCCNc1nc(CN(C)C2CCC(C#N)(c3ccccc3)CC2)nc2ccccc12 (centres unmarked) [Formula 109] | 5.5 (2) %
CN(C)CCCNc1nc(CN(C)C2CCN(C(=O)c3ccccc3)CC2)nc2ccccc12 [Formula 110] | 20.7 (2) %
CN(C)CCCNc1nc(CN(C)CC2CCCCC2)nc2ccccc12 [Formula 111] | 57.0%
COc1ccc(Cl)cc1NC(=O)N(C)Cc1nc(NCCCN(C)C)c2ccccc2n1 [Formula 112] | 48.4%
CN(C)CCCNc1nc(CN(Cc2ccccc2)Cc2ccccc2)nc2ccccc12 [Formula 113] | 61.7%
COc1ccc(/C=C/c2nc(NCCCN(C)C)c3ccccc3n2)cc1 [Formula 114] | 61.3%
CN(C)CC[C@H](Nc1nc(CN2CCN(C(c3ccc(Cl)cc3)c3ccc(Cl)cc3)CC2)nc2ccccc12)C(N)=O [Formula 115] | 44.8%
CCOC(=O)[C@H](CCN(C)C)Nc1nc(CN2CCN(C(c3ccc(Cl)cc3)c3ccc(Cl)cc3)CC2)nc2ccccc12 [Formula 116] | 47.7%
CC(C)COC(=O)[C@H](CCCN(C)C)Nc1nc(CN2CCN(C(c3ccc(Cl)cc3)c3ccc(Cl)cc3)CC2)nc2ccccc12 [Formula 117] | 72.5%
CN(C)CCC[C@H](Nc1nc(CN2CCN(C(c3ccc(Cl)cc3)c3ccc(Cl)cc3)CC2)nc2ccccc12)C(N)=O [Formula 118] | 58.6%
CN(C)CCCC[C@H](Nc1nc(CN2CCN(C(c3ccc(Cl)cc3)c3ccc(Cl)cc3)CC2)nc2ccccc12)C(N)=O [Formula 119] | 58.5%

system: DLD-1 human colon adenocarcinoma cells; assay: In vivo anti-tumor study, unstaged model; set-up: species or system Nude mice; conditions: 10 mpk orally every 12 hours for 31 days, dosing from day 4
Method: Unstaged Model. In this model, the therapy was started immediately after the tumor cells had been inoculated. Nude mice (5-6 week old females) were inoculated with 5×10^6 DLD-1 human colon adenocarcinoma cells on day 1, and randomized on day 3. The dosing of these mice was started on day 4. Groups 1 to 4, having 10 mice in each group, were dosed orally every 12 hours with vehicle,
[drawing 33] 50 mpk, respectively, for 31 days. All animals were carefully monitored at least daily and each tumor was measured twice a week. The tumor growth inhibition level observed is set forth below in Table 3.

Structure (SMILES) | % inhibition (tumor growth), unstaged model [%]
CN(C)CCCNc1nc(CN2CCN(C(c3ccc(Cl)cc3)c3ccc(Cl)cc3)CC2)nc2ccccc12 [drawing 34] | 48.30

same assay, conditions: 30 mpk orally every 12 hours for 31 days, dosing from day 4

Structure (SMILES) | % inhibition (tumor growth), unstaged model [%]
CN(C)CCCNc1nc(CN2CCN(C(c3ccc(Cl)cc3)c3ccc(Cl)cc3)CC2)nc2ccccc12 [drawing 34] | 43.23

same assay, conditions: 50 mpk orally every 12 hours for 31 days, dosing from day 4

Structure (SMILES) | % inhibition (tumor growth), unstaged model [%]
CN(C)CCCNc1nc(CN2CCN(C(c3ccc(Cl)cc3)c3ccc(Cl)cc3)CC2)nc2ccccc12 [drawing 34] | 78.96
